Data as given in ChEMBL document CHEMBL5465560, “Selectivity Literature for EUbOPEN Chemogenomic Library” (2024).

How the values were obtained:
[1] = target: Cyclin-dependent kinase 14 (Homo sapiens) (UniProt O94921); details: at 10 µM
[2] = target: Tyrosine-protein kinase SYK (Homo sapiens, UniProt P43405); details: at 10 µM
Nischarin (Homo sapiens) = Nischarin (Homo sapiens) (UniProt Q9Y2I1); test: Selectivity interaction (Eurofins CEREP Diversity Profile (receptors and ion channels)) EUB0000279b NISCH; details: at 10 µM
Nischarin (Homo sapiens), sequence (Q9Y2I1 whole entry): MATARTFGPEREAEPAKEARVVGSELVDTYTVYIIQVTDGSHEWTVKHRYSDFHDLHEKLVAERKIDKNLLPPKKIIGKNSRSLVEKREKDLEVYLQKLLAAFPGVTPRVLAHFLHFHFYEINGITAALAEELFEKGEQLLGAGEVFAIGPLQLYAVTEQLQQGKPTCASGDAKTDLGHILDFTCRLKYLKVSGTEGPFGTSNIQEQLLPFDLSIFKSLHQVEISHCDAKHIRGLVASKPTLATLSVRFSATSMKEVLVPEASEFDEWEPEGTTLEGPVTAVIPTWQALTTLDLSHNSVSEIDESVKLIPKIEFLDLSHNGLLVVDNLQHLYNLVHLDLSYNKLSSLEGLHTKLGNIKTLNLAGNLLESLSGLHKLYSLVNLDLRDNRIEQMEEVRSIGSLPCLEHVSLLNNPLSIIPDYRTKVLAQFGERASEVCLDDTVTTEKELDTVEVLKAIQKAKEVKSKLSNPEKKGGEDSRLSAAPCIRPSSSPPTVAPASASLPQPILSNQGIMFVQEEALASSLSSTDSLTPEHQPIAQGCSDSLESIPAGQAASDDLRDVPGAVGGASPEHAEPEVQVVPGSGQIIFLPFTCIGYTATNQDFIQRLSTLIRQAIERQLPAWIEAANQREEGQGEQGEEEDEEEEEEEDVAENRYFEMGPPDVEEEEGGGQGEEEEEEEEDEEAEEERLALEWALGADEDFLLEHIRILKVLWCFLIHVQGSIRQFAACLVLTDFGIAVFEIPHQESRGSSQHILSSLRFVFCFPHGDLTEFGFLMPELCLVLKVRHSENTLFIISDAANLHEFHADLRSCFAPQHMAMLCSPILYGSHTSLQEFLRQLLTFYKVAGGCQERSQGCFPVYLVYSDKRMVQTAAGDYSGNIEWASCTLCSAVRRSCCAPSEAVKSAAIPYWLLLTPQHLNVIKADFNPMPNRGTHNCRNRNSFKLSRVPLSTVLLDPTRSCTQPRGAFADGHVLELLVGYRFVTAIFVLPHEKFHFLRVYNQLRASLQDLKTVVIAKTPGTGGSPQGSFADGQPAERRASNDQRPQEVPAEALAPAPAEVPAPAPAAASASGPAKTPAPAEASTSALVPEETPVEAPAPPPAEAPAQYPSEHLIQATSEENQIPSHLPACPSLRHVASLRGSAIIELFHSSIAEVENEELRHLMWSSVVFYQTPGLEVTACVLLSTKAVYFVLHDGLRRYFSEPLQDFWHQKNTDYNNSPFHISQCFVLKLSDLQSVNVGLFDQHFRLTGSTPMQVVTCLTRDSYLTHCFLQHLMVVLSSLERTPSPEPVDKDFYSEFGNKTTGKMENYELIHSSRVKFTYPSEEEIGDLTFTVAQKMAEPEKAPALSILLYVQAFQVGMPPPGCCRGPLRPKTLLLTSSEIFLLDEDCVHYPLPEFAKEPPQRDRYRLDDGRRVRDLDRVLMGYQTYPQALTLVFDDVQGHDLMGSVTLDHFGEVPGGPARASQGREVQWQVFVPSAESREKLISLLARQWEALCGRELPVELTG

[3] = tested on: Epidermal growth factor receptor (Homo sapiens), P00533 [UNDEFINED MUTATION]; test: Selectivity interaction (KinomeScan (DiscoverX)) EUB0001079a EGFR; details: at 1 µM
[4] = target: T1, Ephrin type-A receptor 8 (Homo sapiens) (UniProt P29322); test: Selectivity interaction (KinomeScan (DiscoverX)) EUB0001079a EPHA8; details: at 1 µM
T1 sequence (whole entry): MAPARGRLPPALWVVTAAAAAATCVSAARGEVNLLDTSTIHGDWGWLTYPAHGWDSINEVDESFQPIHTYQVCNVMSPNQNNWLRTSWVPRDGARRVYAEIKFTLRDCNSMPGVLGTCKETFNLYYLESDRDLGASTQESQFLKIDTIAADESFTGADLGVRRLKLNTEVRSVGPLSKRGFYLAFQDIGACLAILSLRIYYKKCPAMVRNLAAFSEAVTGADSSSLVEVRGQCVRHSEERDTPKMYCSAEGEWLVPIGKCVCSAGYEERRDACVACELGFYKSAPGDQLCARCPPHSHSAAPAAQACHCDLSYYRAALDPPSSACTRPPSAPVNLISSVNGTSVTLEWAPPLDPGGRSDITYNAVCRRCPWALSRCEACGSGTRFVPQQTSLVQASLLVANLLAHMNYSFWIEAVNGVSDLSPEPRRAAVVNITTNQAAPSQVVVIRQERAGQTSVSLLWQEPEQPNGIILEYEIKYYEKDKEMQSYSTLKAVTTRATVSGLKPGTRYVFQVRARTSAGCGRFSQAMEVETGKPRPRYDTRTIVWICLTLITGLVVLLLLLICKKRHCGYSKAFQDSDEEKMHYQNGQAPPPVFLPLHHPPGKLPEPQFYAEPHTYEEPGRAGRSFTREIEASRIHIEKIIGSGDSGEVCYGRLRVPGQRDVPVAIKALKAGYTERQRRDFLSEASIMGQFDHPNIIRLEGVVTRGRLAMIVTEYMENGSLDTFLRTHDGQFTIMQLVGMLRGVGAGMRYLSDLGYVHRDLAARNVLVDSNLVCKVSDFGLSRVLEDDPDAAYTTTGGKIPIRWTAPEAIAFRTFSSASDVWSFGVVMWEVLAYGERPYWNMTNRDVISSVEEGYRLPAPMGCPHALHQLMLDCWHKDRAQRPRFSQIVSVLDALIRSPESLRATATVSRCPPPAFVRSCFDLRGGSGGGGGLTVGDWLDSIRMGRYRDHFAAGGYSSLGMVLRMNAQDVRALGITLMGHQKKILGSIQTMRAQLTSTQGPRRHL

[5] = target: Ribosomal protein S6 kinase alpha-3 (Homo sapiens, UniProt P51812); test: Selectivity interaction (KinomeScan (DiscoverX)) EUB0000618a RPS6KA3; details: at 10 µM
Ribosomal protein S6 kinase alpha-3, sequence (P51812 whole entry): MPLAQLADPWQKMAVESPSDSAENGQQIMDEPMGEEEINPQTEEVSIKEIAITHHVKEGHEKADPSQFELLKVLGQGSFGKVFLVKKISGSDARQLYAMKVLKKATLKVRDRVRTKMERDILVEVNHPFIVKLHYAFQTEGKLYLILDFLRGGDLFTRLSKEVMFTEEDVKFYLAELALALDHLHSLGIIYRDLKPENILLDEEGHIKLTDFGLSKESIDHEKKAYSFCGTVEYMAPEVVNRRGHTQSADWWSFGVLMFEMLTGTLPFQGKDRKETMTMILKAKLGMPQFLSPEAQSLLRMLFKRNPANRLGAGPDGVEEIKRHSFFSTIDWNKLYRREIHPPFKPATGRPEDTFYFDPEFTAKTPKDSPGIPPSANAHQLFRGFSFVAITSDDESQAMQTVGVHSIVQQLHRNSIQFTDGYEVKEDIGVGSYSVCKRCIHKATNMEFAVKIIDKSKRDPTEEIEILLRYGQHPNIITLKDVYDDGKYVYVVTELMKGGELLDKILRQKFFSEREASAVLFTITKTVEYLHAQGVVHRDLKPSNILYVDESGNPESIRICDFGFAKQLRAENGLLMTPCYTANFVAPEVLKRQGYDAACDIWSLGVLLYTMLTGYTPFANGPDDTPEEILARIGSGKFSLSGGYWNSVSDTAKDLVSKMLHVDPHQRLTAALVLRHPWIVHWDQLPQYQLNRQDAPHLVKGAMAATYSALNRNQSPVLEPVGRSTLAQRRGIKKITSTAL

[6] = target: Cyclin-dependent kinase 13 (Homo sapiens, UniProt Q14004); test: Selectivity interaction (KinomeScan (DiscoverX)) EUB0000607a CDK13; details: at 10 µM
[7] = target: T2, Serine/threonine-protein kinase D3 (Homo sapiens) (UniProt O94806); test: Selectivity interaction (KinomeScan (DiscoverX)) EUB0000595a PRKD3; details: at 10 µM
T2 sequence (whole entry): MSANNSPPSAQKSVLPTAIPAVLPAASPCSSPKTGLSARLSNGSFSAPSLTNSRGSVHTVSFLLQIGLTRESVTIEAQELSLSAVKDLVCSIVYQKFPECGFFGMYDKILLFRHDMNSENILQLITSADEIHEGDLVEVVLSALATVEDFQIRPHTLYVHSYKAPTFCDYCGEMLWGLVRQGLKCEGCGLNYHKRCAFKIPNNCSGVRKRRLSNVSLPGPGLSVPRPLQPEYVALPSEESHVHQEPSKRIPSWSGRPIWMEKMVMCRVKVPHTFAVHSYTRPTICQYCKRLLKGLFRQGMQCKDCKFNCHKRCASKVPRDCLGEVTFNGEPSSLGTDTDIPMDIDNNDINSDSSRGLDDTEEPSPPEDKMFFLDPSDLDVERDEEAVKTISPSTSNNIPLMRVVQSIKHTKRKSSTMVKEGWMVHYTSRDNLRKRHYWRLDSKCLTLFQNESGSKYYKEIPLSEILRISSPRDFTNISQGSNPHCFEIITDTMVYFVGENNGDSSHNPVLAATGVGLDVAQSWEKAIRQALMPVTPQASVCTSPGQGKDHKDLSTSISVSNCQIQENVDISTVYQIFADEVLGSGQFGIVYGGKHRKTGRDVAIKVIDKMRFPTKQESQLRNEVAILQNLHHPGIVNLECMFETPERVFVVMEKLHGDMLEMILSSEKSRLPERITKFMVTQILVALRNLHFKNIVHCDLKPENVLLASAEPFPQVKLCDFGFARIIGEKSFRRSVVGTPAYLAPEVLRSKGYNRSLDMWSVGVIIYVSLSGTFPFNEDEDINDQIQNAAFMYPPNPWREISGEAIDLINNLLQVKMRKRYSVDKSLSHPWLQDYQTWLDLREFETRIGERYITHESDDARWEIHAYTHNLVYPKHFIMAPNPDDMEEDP

[8] = target: DNA (cytosine-5)-methyltransferase 3A (Homo sapiens) (UniProt Q9Y6K1); details: at 10 µM
[9] = target: Protein arginine N-methyltransferase 8 (Homo sapiens, UniProt Q9NR22); details: at 1 µM
[10] = target: 5'-AMP-activated protein kinase catalytic subunit alpha-1 (Homo sapiens, UniProt Q13131); test: Selectivity interaction (ActivX KiNativ screen (kinase selectivity in THP-1 cell lysates)) EUB0000639a PRKAA1; format: subcellular; details: lysate
5'-AMP-activated protein kinase catalytic subunit alpha-1, sequence (Q13131 whole entry, looked up): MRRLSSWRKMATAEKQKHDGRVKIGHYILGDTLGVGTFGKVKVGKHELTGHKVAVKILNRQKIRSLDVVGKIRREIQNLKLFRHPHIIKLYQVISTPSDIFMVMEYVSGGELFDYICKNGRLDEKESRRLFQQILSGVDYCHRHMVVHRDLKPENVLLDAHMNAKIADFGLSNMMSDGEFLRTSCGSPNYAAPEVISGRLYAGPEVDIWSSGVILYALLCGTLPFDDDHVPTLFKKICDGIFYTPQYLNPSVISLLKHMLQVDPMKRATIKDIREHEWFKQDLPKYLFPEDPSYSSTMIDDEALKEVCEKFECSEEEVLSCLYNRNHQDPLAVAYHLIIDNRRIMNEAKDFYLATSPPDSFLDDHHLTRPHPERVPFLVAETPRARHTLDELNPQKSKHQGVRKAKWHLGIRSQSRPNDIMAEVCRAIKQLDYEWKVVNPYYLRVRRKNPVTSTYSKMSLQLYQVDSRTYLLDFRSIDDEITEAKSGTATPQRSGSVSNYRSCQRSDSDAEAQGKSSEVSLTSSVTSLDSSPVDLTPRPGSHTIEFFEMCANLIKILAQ

[11] = target: Wee1-like protein kinase (Homo sapiens) (UniProt P30291); test: Selectivity interaction (ActivX KiNativ screen (kinase selectivity in THP-1 cell lysates)) EUB0000639a WEE1; format: subcellular; details: lysate
Wee1-like protein kinase (Homo sapiens), sequence (P30291 whole entry, looked up): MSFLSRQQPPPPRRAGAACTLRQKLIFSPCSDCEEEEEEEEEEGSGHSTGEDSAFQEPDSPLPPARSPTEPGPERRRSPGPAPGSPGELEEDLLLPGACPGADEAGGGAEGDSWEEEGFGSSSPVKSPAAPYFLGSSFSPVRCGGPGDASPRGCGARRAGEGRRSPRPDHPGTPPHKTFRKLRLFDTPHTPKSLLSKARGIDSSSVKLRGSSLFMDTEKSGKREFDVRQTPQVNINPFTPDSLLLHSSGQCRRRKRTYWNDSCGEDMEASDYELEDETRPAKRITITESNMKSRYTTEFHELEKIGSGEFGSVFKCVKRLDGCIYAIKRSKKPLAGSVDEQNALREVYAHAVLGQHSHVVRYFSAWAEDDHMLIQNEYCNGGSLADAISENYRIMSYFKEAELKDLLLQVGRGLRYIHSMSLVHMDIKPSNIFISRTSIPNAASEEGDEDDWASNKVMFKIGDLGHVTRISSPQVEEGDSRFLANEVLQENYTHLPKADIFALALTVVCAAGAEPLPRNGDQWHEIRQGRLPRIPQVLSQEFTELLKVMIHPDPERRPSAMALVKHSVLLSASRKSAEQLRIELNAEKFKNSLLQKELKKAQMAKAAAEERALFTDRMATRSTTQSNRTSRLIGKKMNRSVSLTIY

Ephrin type-A receptor 4 = Ephrin type-A receptor 4 (Homo sapiens, UniProt P54764); test: Selectivity interaction (KinomeScan (DiscoverX)) EUB0000229b EPHA4; details: at 10 µM
Ephrin type-A receptor 4, sequence (P54764 whole entry): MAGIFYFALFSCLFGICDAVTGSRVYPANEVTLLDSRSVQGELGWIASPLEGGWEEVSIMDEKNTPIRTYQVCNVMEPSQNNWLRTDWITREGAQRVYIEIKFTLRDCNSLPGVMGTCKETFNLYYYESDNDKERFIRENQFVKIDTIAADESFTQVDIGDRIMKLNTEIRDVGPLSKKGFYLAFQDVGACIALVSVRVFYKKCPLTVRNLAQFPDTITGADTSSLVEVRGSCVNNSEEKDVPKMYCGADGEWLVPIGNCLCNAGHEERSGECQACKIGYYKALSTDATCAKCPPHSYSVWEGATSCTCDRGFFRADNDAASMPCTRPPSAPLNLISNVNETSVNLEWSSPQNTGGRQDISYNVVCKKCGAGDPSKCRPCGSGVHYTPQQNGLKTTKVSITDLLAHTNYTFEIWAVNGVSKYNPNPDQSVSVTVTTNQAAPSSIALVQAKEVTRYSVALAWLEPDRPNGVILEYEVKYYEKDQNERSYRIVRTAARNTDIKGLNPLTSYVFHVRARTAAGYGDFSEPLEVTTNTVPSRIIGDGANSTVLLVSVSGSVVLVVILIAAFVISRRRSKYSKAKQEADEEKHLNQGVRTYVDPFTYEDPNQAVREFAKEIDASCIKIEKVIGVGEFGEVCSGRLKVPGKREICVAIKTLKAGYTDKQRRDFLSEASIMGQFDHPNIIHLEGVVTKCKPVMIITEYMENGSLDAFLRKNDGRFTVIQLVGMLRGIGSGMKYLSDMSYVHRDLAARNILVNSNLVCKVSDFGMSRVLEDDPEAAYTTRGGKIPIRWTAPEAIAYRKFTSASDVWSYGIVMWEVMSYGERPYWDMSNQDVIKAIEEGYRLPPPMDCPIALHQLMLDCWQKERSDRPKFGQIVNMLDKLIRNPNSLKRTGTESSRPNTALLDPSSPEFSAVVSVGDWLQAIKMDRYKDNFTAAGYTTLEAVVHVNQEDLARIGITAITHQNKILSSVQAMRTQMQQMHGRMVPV

Adenosine receptor A1 = Adenosine receptor A1 (Homo sapiens, UniProt P30542); test: Selectivity interaction (Adenosine 1 receptor binding assay, human recombinant) EUB0000877a ADORA1
[12] = target: T1, Ephrin type-A receptor 8 (Homo sapiens); test: Selectivity interaction (KinomeScan (DiscoverX)) EUB0000666a EPHA8; details: at 10 µM

Cyclin-dependent kinase 14 (Homo sapiens), sequence (O94921 whole entry): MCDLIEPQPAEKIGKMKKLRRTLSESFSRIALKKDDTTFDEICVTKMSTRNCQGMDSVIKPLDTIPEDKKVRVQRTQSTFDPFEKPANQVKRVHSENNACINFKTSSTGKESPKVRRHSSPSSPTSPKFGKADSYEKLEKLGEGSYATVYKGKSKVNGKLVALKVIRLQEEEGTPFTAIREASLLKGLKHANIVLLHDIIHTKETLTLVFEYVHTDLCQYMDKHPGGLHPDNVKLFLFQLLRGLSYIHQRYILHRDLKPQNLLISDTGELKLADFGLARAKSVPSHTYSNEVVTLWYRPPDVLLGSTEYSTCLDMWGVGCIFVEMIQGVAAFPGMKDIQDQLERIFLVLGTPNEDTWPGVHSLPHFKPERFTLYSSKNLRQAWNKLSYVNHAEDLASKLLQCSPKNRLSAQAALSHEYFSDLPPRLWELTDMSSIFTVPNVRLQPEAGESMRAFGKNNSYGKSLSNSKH

## CCN(CC)CCCCNc1ncc2cc(-c3cc(OC)cc(OC)c3)c(NC(=O)NC(C)(C)C)nc2n1
[1]
  % of control: 100%
[2]
  % of control: 100%

## CC(=O)c1cc(-c2ccccc2OCC2CC2)c2ncccn12
Nischarin (Homo sapiens)
  % of control: 87%

## Nc1cnc(N2CCc3cc(S(=O)(=O)Nc4c(F)cc(Cl)cc4F)cc(N4CCCC4=O)c32)nc1 [TP-020n]
[3]
  % of control: 63%
[4]
  % of control: 100%

## O[C@H]1CC[C@H](Nc2ncc3nc(Nc4c(F)cc(F)cc4F)n([C@H]4CCOC4)c3n2)CC1
[5]
  % of control: 60%

## CNC(=O)Nc1ccc(-c2nc(N3CC4CCC(C3)O4)c3cnn(C4CCC5(CC4)OCCO5)c3n2)cc1
[6]
  % of control: 84%

## COCC(=O)NC/C=C/c1ccc2ncnc(Nc3ccc(Oc4ccc(C)nc4)c(C)c3)c2c1 [CP-724714]
[7]
  % of control: 83%

## CNCCN1CCC(c2cc(CN(C)C(=O)c3cccc(Oc4ccccc4)c3)ccn2)CC1
[8]
  % activity: > 90%
[9]
  % activity: > 90%

## CC[C@@H]1[C@H](F)C(=O)N[C@@H]1COc1nccc2cc(C(N)=O)c(OC)cc12 [ZIMLOVISERTIB]
[10]; at 0.01 µM
  % of inhibition: 16%
[10]; at 0.04 µM
  % of inhibition: 21.7%
[10]; at 0.2 µM
  % of inhibition: 11.2%
[10]; at 1 µM
  % of inhibition: 11.8%
[10]; at 5 µM
  % of inhibition: 28.8%
[11]; at 0.01 µM
  % of inhibition: 25.6%
[11]; at 0.04 µM
  % of inhibition: -1.5%
[11]; at 0.2 µM
  % of inhibition: 3.2%
[11]; at 1 µM
  % of inhibition: -5.7%
[11]; at 5 µM
  % of inhibition: 35.6%

## COc1cc(N(C)c2ccnc3ccc(C(F)(F)F)cc23)cc(OC)c1OC
Ephrin type-A receptor 4
  % binding: 100%

## CCC(=O)N1CC[C@H](Nc2ncnc3c2CN(c2cnc(OC)c(C(F)(F)F)c2)CC3)C1 [LENIOLISIB]
Adenosine receptor A1
  IC50: > 30 µM

## O=C(NOC[C@H](O)CO)c1ccc(F)c(F)c1Nc1ccc(I)cc1F
[12]
  % of control: 94%
